Data published in patent US9156872B2, “2′-azido substituted nucleoside derivatives and methods of use thereof for the treatment of viral diseases” (priority 2011, dated 2015).

tested on: HCV replicon cells; assay: Cell-based HCV replicon assay (replicon RNA by Taqman real time PCR); conditions: HCV replicon 1b, cells harvested on day 3; read-out: 1b EC50

Row | SMILES | EC50 [µM]
1 | CC(C)OP1(=O)OC[C@H]2O[C@@H](n3ccc(=O)[nH]c3=O)[C@](C)(N=[N+]=[N-])[C@@H]2O1 (some centres unmarked) [Compound 44] | > 100

same assay, conditions: Hepatitis C virus, 72 h, HCV replicon 1b, cells harvested on day 3; read-out: 1b EC50

Row | SMILES | EC50 [µM]
2 | CCOc1nc(N)nc2c1ncn2[C@@H]1O[C@@H]2COP(=O)(OC(C)C)O[C@H]2[C@@]1(C)N=[N+]=[N-] (some centres unmarked) [Compound 23] | 69
3 | C[C@@]1(N=[N+]=[N-])[C@H](O)[C@@H](CO)O[C@H]1n1ccc(=O)[nH]c1=O [Compound 4] | > 100
4 | C[C@H](NP(=O)(O)OC[C@H]1O[C@@H](n2ccc(=O)[nH]c2=O)[C@](C)(N=[N+]=[N-])[C@@H]1O)C(=O)OC1CCCCC1 (single isomer, unassigned) [Compound 329] | > 100

same assay, conditions: Hepatitis C virus, 72 h, read-out: 1b EC50

Row | SMILES | EC50 [µM]
5 | CCCCOC(=O)[C@H](C)NP(=O)(OC[C@H]1O[C@@H](n2ccc(N)nc2=O)[C@](C)(N=[N+]=[N-])[C@@H]1O)Oc1ccccc1 (some centres unmarked) [Compound 31] | 4.9
6 | C[C@H](NP(=O)(OC[C@H]1O[C@@H](n2ccc(N)nc2=O)[C@](C)(N=[N+]=[N-])[C@@H]1O)Oc1ccc(Cl)cc1)C(=O)OC1CCCCC1 (single isomer, unassigned) [Compound 339] | 14
7 | CCCOC(=O)[C@H](C)NP(=O)(OC[C@H]1O[C@@H](n2ccc(N)nc2=O)[C@](C)(N=[N+]=[N-])[C@@H]1O)Oc1ccccc1 (some centres unmarked) [Compound 30] | 3.3
8 | CCOC(=O)[C@H](C)NP(=O)(OC[C@H]1O[C@@H](n2ccc(N)nc2=O)[C@](C)(N=[N+]=[N-])[C@@H]1O)Oc1ccccc1Cl (some centres unmarked) [Compound 183] | 3
9 | CCOC(=O)[C@H](C)NP(=O)(OC[C@H]1O[C@@H](n2cnc3c(OCC)nc(N)nc32)[C@](C)(N=[N+]=[N-])[C@@H]1O)Oc1ccccc1Cl (some centres unmarked) [Compound 349] | 2
10 | COC(=O)[C@H](C)NP(=O)(OC[C@H]1O[C@@H](n2ccc(=O)[nH]c2=O)[C@](C)(N=[N+]=[N-])[C@@H]1O)Oc1ccc(Cl)c(Cl)c1 (some centres unmarked) [Compound 229] | 0.03
11 | COC(=O)[C@H](C)NP(=O)(OC[C@H]1O[C@@H](n2ccc(N)nc2=O)[C@](C)(N=[N+]=[N-])[C@@H]1O)Oc1cccc2ccccc12 (some centres unmarked) [Compound 47] | 0.4
12 | CCCCOC(=O)[C@H](C)NP(=O)(OC[C@H]1O[C@@H](n2ccc(=O)[nH]c2=O)[C@](C)(N=[N+]=[N-])[C@@H]1O)Oc1cccc2ccccc12 (single isomer, unassigned) [Compound 155] | 2.2
13 | COC(=O)[C@H](C)NP(=O)(OC[C@H]1O[C@@H](n2cnc3c(OC)nc(N)nc32)[C@](C)(N=[N+]=[N-])[C@@H]1O)Oc1ccc(Cl)c(Cl)c1 (some centres unmarked) [Compound 248] | 1
14 | COP1(=O)OC[C@H]2O[C@@H](n3ccc(=O)[nH]c3=O)[C@](C)(N=[N+]=[N-])[C@@H]2O1 (some centres unmarked) [Compound 18] | > 100
15 | CCOC(=O)[C@H](C)NP(=O)(OC[C@H]1O[C@@H](n2cnc3c(OCC)nc(N)nc32)[C@](C)(N=[N+]=[N-])[C@@H]1O)Oc1ccc(F)cc1 (some centres unmarked) [Compound 141] | 0.2
16 | CCOc1nc(N)nc2c1ncn2[C@@H]1O[C@H](COP(=O)(N[C@@H](C)C(=O)OC)Oc2ccc(F)cc2)[C@@H](O)[C@@]1(C)N=[N+]=[N-] (single isomer, unassigned) [Compound 173] | 0.6
17 | COc1nc(N)nc2c1ncn2[C@@H]1O[C@H](COP(=O)(N[C@@H](C)C(=O)OCC(C)C)Oc2ccccc2)[C@@H](O)[C@@]1(C)N=[N+]=[N-] (some centres unmarked) [Compound 245] | 0.4
18 | COc1nc(N)nc2c1ncn2[C@@H]1O[C@H](COP(=O)(N[C@@H](C)C(=O)OC2CCCCC2)Oc2ccc(F)cc2)[C@@H](O)[C@@]1(C)N=[N+]=[N-] (some centres unmarked) [Compound 241] | 1.9
19 | COC(=O)[C@H](C)NP(=O)(OC[C@H]1O[C@@H](n2cnc3c(OC)nc(N)nc32)[C@](C)(N=[N+]=[N-])[C@@H]1O)Oc1ccccc1 (some centres unmarked) [Compound 53] | 0.7
20 | CC(=O)CCc1ccc(OP(=O)(N[C@@H](C)C(=O)OC(C)C)OC[C@H]2O[C@@H](n3ccc(=O)[nH]c3=O)[C@](C)(N=[N+]=[N-])[C@@H]2O)cc1 (some centres unmarked) [Compound 178] | 3
21 | COc1nc(N)nc2c1ncn2[C@@H]1O[C@H](COP(=O)(N[C@@H](C)C(=O)OC2CCCCC2)Oc2ccc(Cl)cc2)[C@@H](O)[C@@]1(C)N=[N+]=[N-] (some centres unmarked) [Compound 80] | 2.6
22 | C[C@H](NP(=O)(OC[C@H]1O[C@@H](n2ccc(=O)[nH]c2=O)[C@](C)(N=[N+]=[N-])[C@@H]1O)Oc1ccccc1)C(=O)OCC(C)(C)C (some centres unmarked) [Compound 16] | 1
23 | COC(=O)[C@H](C)NP(=O)(OC[C@H]1O[C@@H](n2cnc3c(OC)nc(N)nc32)[C@](C)(N=[N+]=[N-])[C@@H]1O)Oc1ccc(F)cc1 (some centres unmarked) [Compound 242] | 2.6
24 | CCCOC(=O)[C@H](C)NP(=O)(OC[C@H]1O[C@@H](n2cnc3c(OCC)nc(N)nc32)[C@](C)(N=[N+]=[N-])[C@@H]1O)Oc1ccccc1 (single isomer, unassigned) [Compound 163] | 1.1
25 | CCCCOC(=O)[C@H](C)NP(=O)(OC[C@H]1O[C@@H](n2cnc3c(OC)nc(N)nc32)[C@](C)(N=[N+]=[N-])[C@@H]1O)Oc1cccc2ccccc12 (some centres unmarked) [Compound 52] | 1.2
26 | COc1nc(N)nc2c1ncn2[C@@H]1O[C@H](COP(=O)(N[C@@H](C)C(=O)OCC(C)C)Oc2ccc(Cl)cc2)[C@@H](O)[C@@]1(C)N=[N+]=[N-] (some centres unmarked) [Compound 285] | 1.1

same assay, conditions: read-out: 1b EC50

Row | SMILES | EC50 [µM]
27 | CCOC(=O)c1ccccc1OP(=O)(N[C@@H](C)C(=O)OC)OC[C@H]1O[C@@H](n2ccc(=O)[nH]c2=O)[C@](C)(N=[N+]=[N-])[C@@H]1O (single isomer, unassigned) [Compound 226] | 26
28 | COC(=O)[C@H](C)NP(=O)(OC[C@H]1O[C@@H](n2ccc(=O)[nH]c2=O)[C@](C)(N=[N+]=[N-])[C@@H]1O)Oc1cccc2ccccc12 (single isomer, unassigned) [Compound 217] | 2.1
29 | C[C@H](NP(=O)(OC[C@H]1O[C@@H](n2ccc(=O)[nH]c2=O)[C@](C)(N=[N+]=[N-])[C@@H]1O)Oc1ccc(F)cc1)C(=O)OC1CCCCC1 (some centres unmarked) [Compound 89] | > 100
30 | COc1nc(N)nc2c1ncn2[C@@H]1O[C@H](COP(=O)(N[C@@H](C)C(=O)OC2CCCCC2)Oc2ccc(F)cc2)[C@@H](O)[C@@]1(C)N=[N+]=[N-] (single isomer, unassigned) [Compound 264] | 0.2
31 | C[C@H](NP(=O)(OC[C@H]1O[C@@H](n2ccc(=O)[nH]c2=O)[C@](C)(N=[N+]=[N-])[C@@H]1O)Oc1ccc(F)cc1)C(=O)OC1CCCCC1 (some centres unmarked) [Compound 90] | 2.1
32 | CCCCOC(=O)[C@H](C)NP(=O)(OC[C@H]1O[C@@H](n2cnc3c(OC)nc(N)nc32)[C@](C)(N=[N+]=[N-])C1O)Oc1ccccc1 (single isomer, unassigned) [Compound 263] | 1.5
33 | CCOc1nc(N)nc2c1ncn2[C@@H]1O[C@H](COP(=O)(N[C@@H](C)C(=O)OC(C)C)Oc2ccc(Cl)c(Cl)c2)[C@@H](O)[C@@]1(C)N=[N+]=[N-] (single isomer, unassigned) [Compound 360] | 4.8
34 | COC(=O)[C@H](C)NP(=O)(OC[C@H]1O[C@@H](n2ccc(=O)[nH]c2=O)[C@](C)(N=[N+]=[N-])[C@@H]1O)Oc1ccc(Cl)cc1 (single isomer, unassigned) [Compound 326] | 0.5
35 | CCOc1nc(N)nc2c1ncn2[C@@H]1O[C@H](COP(=O)(N[C@@H](C)C(=O)OC2CCC2)Oc2ccccc2)[C@@H](O)[C@@]1(C)N=[N+]=[N-] (single isomer, unassigned) [Compound 363] | 0.2
36 | CCOc1nc(N)nc2c1ncn2[C@@H]1O[C@H](COP(=O)(N[C@@H](C)C(=O)OCC(C)C)Oc2ccccc2)[C@@H](O)[C@@]1(C)N=[N+]=[N-] (some centres unmarked) [Compound 60] | 2
37 | COC(=O)[C@H](C)NP(=O)(OC[C@H]1O[C@@H](n2ccc(N)nc2=O)[C@](C)(N=[N+]=[N-])[C@@H]1O)Oc1ccccc1Cl (single isomer, unassigned) [Compound 201] | 12
38 | C[C@H](NP(=O)(OC[C@H]1O[C@@H](n2ccc(N)nc2=O)[C@](C)(N=[N+]=[N-])[C@@H]1O)Oc1ccccc1Cl)C(=O)OCC(C)(C)C (single isomer, unassigned) [Compound 182] | 12
39 | COc1nc(N)nc2c1ncn2[C@@H]1O[C@H](COP(=O)(N[C@@H](C)C(=O)OC2CCCCC2)Oc2ccccc2)[C@@H](O)[C@@]1(C)N=[N+]=[N-] (single isomer, unassigned) [Compound 274] | 8.7
40 | CCOc1nc(N)nc2c1ncn2[C@@H]1O[C@H](COP(=O)(N[C@@H](C)C(=O)OCC(C)(C)C)Oc2ccccc2)[C@@H](O)[C@@]1(C)N=[N+]=[N-] (single isomer, unassigned) [Compound 161] | 1.7
41 | CCOc1nc(N)nc2c1ncn2[C@@H]1O[C@H](COP(=O)(N[C@@H](C)C(=O)OC)Oc2ccc(Cl)cc2)[C@@H](O)[C@@]1(C)N=[N+]=[N-] (single isomer, unassigned) [Compound 311] | 0.9
42 | CCOc1nc(N)nc2c1ncn2[C@@H]1O[C@H](COP(=O)(N[C@@H](C)C(=O)OC(C)C)Oc2ccc(Cl)c(Cl)c2)[C@@H](O)[C@@]1(C)N=[N+]=[N-] (single isomer, unassigned) [Compound 361] | 11.2
43 | CC(C)OC(=O)[C@H](C)NP(=O)(OC[C@H]1O[C@@H](n2ccc(N)nc2=O)[C@](C)(N=[N+]=[N-])[C@@H]1O)Oc1ccccc1Cl (single isomer, unassigned) [Compound 203] | 20
44 | CCOc1nc(N)nc2c1ncn2[C@@H]1O[C@H](COP(=O)(N[C@@H](C)C(=O)OC(C)C)Oc2ccccc2)[C@@H](O)[C@@]1(C)N=[N+]=[N-] (single isomer, unassigned) [Compound 166] | 0.8
45 | C[C@H](NP(=O)(OC[C@H]1O[C@@H](n2ccc(N)nc2=O)[C@](C)(N=[N+]=[N-])[C@@H]1O)Oc1ccccc1)C(=O)OCc1ccccc1 (single isomer, unassigned) [Compound 192] | 19
46 | COC(=O)c1ccccc1OP(=O)(N[C@@H](C)C(=O)OC)OC[C@H]1O[C@@H](n2ccc(=O)[nH]c2=O)[C@](C)(N=[N+]=[N-])[C@@H]1O (single isomer, unassigned) [Compound 227] | 3.1
47 | COc1nc(N)nc2c1ncn2[C@@H]1O[C@H](COP(=O)(N[C@@H](C)C(=O)OC2CCCCC2)Oc2ccccc2)[C@@H](O)[C@@]1(C)N=[N+]=[N-] (single isomer, unassigned) [Compound 275] | 1.5
